Results: article PMC10447287, “Optimisation of Pharmaceutical Cocrystal Dissolution Performance through a Synergistic Precipitation Inhibition” (Pharmaceutical Research, 2023)

What was measured:
[1] = FFA-NIC cocrystal solubility and phase solubility diagrams (PSD); type: physicochemical; details: for FFA concentration at eutectic point / Ksp / SAB: 37°C
Experimental: For a 1:1 AB cocrystal without consideration of ionization of each component, its molar solubility SAB is calculated as [21]1 SAB=Ksp=CACB where Ksp is the solubility product of the AB cocrystal, and CA and CB (μmol/mL) are the molar concentrations of A and B where the solution is in equilibrium with the solid residues including cocrystal solids. When the solution is in equilibrium with both the drug and cocrystal solids, it is called the eutectic point where the component concentrations in solution are designated as CA_eut and CB_eut .
In order to determine the FFA-NIC cocrystal solubility, the physical mixtures of the FFA I and NIC solids and a constant 10 mL of the medium (i.e., DDW or PBS pH 4.5 in the absence and presence of a predissolved polymer, i.e., 0.2 mg/mL PVP-VA, 1 mg/mL PEG or 0.2 mg/mL SLP, or a combination, i.e., 0.2 mg/mL PVP-VA + 1 mg/mL PEG, 0.2 mg/mL PVP-VA + 0.2 mg/mL SLP), representing 10% w/w and 90% w/w of the total weight of a sample, were used. More than eight different ratios of the FFA I and NIC solids in the physical mixtures (Table S1 in the supporting materials) were prepared and then each of them was transferred into a 20 mL glass vial containing a magnetic stirrer (3 × 20 mm) with 10 mL of the solution prepared above. The samples were placed in the Polar Bear Plus Crystal (Cambridge Reactor Design Ltd, UK) and kept at 37 ± 0.5°C for 24 h. After that, the supernatant of each of the samples was separated from excess solids by centrifugation at 13,000 RPM for 1 min in an MSE Micro Centaur. HPLC was used to determine the concentrations of FFA and NIC. Solid residues obtained from the experiments were dried at room temperature and analysed by PXRD. If the FFA-NIC cocrystal solids were found in the solid residues of a sample ( i ), the molar concentrations of FFA ( CFFA,iexp ) and NIC ( CNIC,iexp ) (μmol/mL) obtained were used to determine the solubility product Ksp,iexp of FFA-NIC cocrystal by2 Ksp,iexp=CFFA,iexp×CNIC,iexp
The optimal solubility product Kspoptimal of FFA-NIC cocrystal is obtained by minimizing the sum square error (SSE) of the optimal value with each of the individual experimental values KSP,iexp .3 Kspoptimal=min∑i=1n(Kspoptimal-ksp,iexp)^2 where n is the total number of vials having the cocrystal solids in the residues.
In this work, the optimal value of Kspopitmal was obtained using the inbuilt “fminbnd” function in MATLAB. If both the FFA-NIC cocrystal and FFA I solids were found in the solid residues of a sample, the measured concentrations of FFA ( CFFAexp ) and NIC ( CNICexp ) were the transition concentrations at the eutectic point.

[2] = Particle size distribution of sieved powders; type: physicochemical; details: sieved particles < 250 μm
Experimental: All samples (i.e., FFA, FFA-NIC cocrystal and FFA-TP cocrystal) used in the dissolution tests were slightly ground by a mortar and pestle and sieved by a 60-mesh sieve (below 250 μm) to reduce the influence of particle size on the dissolution rates. The particle size distributions of the test samples were measured using a SYNC Analyzer (MICROTRAC Retsch GmbH, Hann, Germany). The particle size distributions (D10, D50, D90 and mean particle size) of the solid particles were compared. The data were analysed by the Microtrac FLEX software (12.0.0.1).

[3] = DDW with PEG (1 mg/mL) + PVP-VA (0.2 mg/mL)
[4] = DDW with SLP (0.2 mg/mL) + PVP-VA (0.2 mg/mL)
[5] = PBS pH 4.5 with PEG (1 mg/mL) + PVP-VA (0.2 mg/mL)
[6] = PBS pH 4.5 with PVP-VA (0.2 mg/mL)
[7] = PBS pH 4.5 with SLP (0.2 mg/mL)
[8] = PBS pH 4.5 with SLP (0.2 mg/mL) + PVP-VA (0.2 mg/mL)

Ratio of FFA concentration at eutectic point with parent drug ([1]; DDW with PEG (1 mg/mL)): 4.47 | Ratio of FFA concentration at eutectic point with parent drug [1, 3]: 7.27 | Ratio of cocrystal solubility with parent drug [1, 3]: 4382.27 | FFA concentration at eutectic point [1, 3]: 0.26 µmol/mL | Ksp [1, 3]: 156.76 μmol^2/mL^2 | SAB [1, 3]: 12.52 µmol/mL | FFA concentration at eutectic point ([1]; DDW with PEG (1 mg/mL)): 0.16 µmol/mL | Ksp ([1]; DDW with PEG (1 mg/mL)): 136.09 μmol^2/mL^2 | SAB ([1]; DDW with PEG (1 mg/mL)): 11.67 µmol/mL | Ratio of FFA concentration at eutectic point with parent drug ([1]; DDW with PVP-VA (0.2 mg/mL)): 23.20 | Ratio of cocrystal solubility with parent drug ([1]; DDW with PVP-VA (0.2 mg/mL)): 4805.23 | FFA concentration at eutectic point ([1]; DDW with PVP-VA (0.2 mg/mL)): 0.83 µmol/mL | Ksp ([1]; DDW with PVP-VA (0.2 mg/mL)): 171.89 μmol^2/mL^2 | SAB ([1]; DDW with PVP-VA (0.2 mg/mL)): 13.11 µmol/mL | Ratio of FFA concentration at eutectic point with parent drug ([1]; DDW with SLP (0.2 mg/mL)): 4.47 | Ratio of cocrystal solubility with parent drug ([1]; DDW with SLP (0.2 mg/mL)): 3218.49 | Ratio of FFA concentration at eutectic point with parent drug [1, 4]: 31.03 | Ratio of cocrystal solubility with parent drug [1, 4]: 6264.77 | FFA concentration at eutectic point [1, 4]: 1.11 µmol/mL | Ksp [1, 4]: 224.10 μmol^2/mL^2 | SAB [1, 4]: 14.97 µmol/mL | FFA concentration at eutectic point ([1]; DDW with SLP (0.2 mg/mL)): 0.16 µmol/mL | Ratio of FFA concentration at eutectic point with parent drug ([1]; DDW, pure solution): 6.71 | Ratio of cocrystal solubility with parent drug ([1]; DDW, pure solution): 2649.04 | FFA concentration at eutectic point ([1]; DDW, pure solution): 0.24 µmol/mL | Ksp ([1]; DDW, pure solution): 94.76 μmol^2/mL^2 | SAB ([1]; DDW, pure solution): 9.73 µmol/mL | Ratio of FFA concentration at eutectic point with parent drug ([1]; PBS pH 4.5, pure solution): 2.46 | Ratio of cocrystal solubility with parent drug ([1]; PBS pH 4.5, pure solution): 1535.91 | FFA concentration at eutectic point ([1]; PBS pH 4.5, pure solution): 0.16 µmol/mL | Ksp ([1]; PBS pH 4.5, pure solution): 99.78 μmol^2/mL^2 | SAB ([1]; PBS pH 4.5, pure solution): 9.99 µmol/mL | Ratio of FFA concentration at eutectic point with parent drug ([1]; PBS pH 4.5 with PEG (1 mg/mL)): 4.93 | Ratio of cocrystal solubility with parent drug ([1]; PBS pH 4.5 with PEG (1 mg/mL)): 1601.02 | Ratio of FFA concentration at eutectic point with parent drug [1, 5]: 10.16 | Ratio of cocrystal solubility with parent drug [1, 5]: 2171.41 | FFA concentration at eutectic point [1, 5]: 0.66 µmol/mL | Ksp [1, 5]: 141.26 μmol^2/mL^2 | SAB [1, 5]: 11.89 µmol/mL | FFA concentration at eutectic point ([1]; PBS pH 4.5 with PEG (1 mg/mL)): 0.32 µmol/mL | Ksp ([1]; PBS pH 4.5 with PEG (1 mg/mL)): 104.01 μmol^2/mL^2 | SAB ([1]; PBS pH 4.5 with PEG (1 mg/mL)): 10.20 µmol/mL | Ratio of FFA concentration at eutectic point with parent drug [1, 6]: 6.93 | Ratio of cocrystal solubility with parent drug [1, 6]: 2040.80 | FFA concentration at eutectic point [1, 6]: 0.45 µmol/mL | Ksp [1, 6]: 132.58 μmol^2/mL^2 | SAB [1, 6]: 11.51 µmol/mL | Ratio of FFA concentration at eutectic point with parent drug [1, 7]: 2.46 | Ratio of cocrystal solubility with parent drug [1, 7]: 1772.19 | Ratio of FFA concentration at eutectic point with parent drug [1, 8]: 10.16 | Ratio of cocrystal solubility with parent drug [1, 8]: 2443.18 | FFA concentration at eutectic point [1, 8]: 0.66 µmol/mL | Ksp [1, 8]: 158.72 μmol^2/mL^2 | SAB [1, 8]: 12.60 µmol/mL | FFA concentration at eutectic point [1, 7]: 0.16 µmol/mL | potential increase in the FFA solubility based on FFA concentration at eutectic point ([1]; in DDW): 30 fold | potential increase in the FFA solubility based on FFA concentration at eutectic point ([1]; in PBS pH 4.5): tenfold | increase of the FFA solubility achieved by cocrystal (by Eq. 1 cocrystal solubility) ([1]; in some cases, Table III): > 1000 fold | D10 [2]: 6.08 μm | D50 [2]: 13.77 μm | D90 [2]: 33.97 μm | Mean particle size [2]: 17.63 μm
Compound: NC(=O)c1cccnc1.O=C(O)c1ccccc1Nc1cccc(C(F)(F)F)c1 [FFA-NIC cocrystal]
